Columns and labels:
[1] = tested on: A549 cells; test: Orthotopic implantation in nude mice, A549 cells; assay type: in vivo, human; settings: pleural cavity, 21 days, n = 6, vs Scr
Protocol: All animal care and handling procedures were performed in accordance with the National Institutes of Health Guide for the Care and Use of Laboratory Animals, and were approved by the Institutional Review Board of Nanjing University (Nanjing, China). Female SCID mice and C57BL/6 mice (6–8 week old) were purchased from the Model Animal Research Center of Nanjing University (Nanjing, China), and were maintained under specific pathogen-free conditions at Nanjing University. The sample size was chosen with adequate power on the basis of the literature and our previous experience[46] and for each experiment it is indicated in the figure legend. […] Lung nodules and progression were monitored and quantified using the bioluminescence system (Caliper IVIS Lumina XR) or by counting under a dissecting microscope. […] Mice were killed at day 28 or day 30 to collect lungs, and lung nodules in serial sections were quantified microscopically. […] Lung nodules and progression were monitored and quantified using the bioluminescence system (Caliper IVIS Lumina XR). Mice were killed at day 14 or day 21 to collect lungs, and lung nodules in serial sections were quantified microscopically. […]
Supplementary Figure 9. […] (right) Relative BLI signals of lung tumors of corresponding mice (n = 6 for each group) recorded on day 3 and day 21. […]

[2] = tested on: CK2α; test: CK2α localization by confocal immunofluorescence / western blot, H1299 cells; assay type: cell-based, human; settings: NatD knockdown H1299 cells
Text: Fig. 7 Downregulation of Nt-acetylation of histone H4 facilitates nuclear accumulation of CK2α and its binding to histone H4 in lung cancer cells. a Representative confocal scanning images of CK2α localization in Scr and H1299 cells (left panel). The staining intensity of CK2α was quantified by software ImageJ from NIH (right diagram). Scale bars, 5 μm. […] Equal peptide biotinylated on C terminus is shown by dot blot analysis with streptavidin (middle panel). […] IgG served as a negative control. Results are shown as mean ± s.d. from three independent experiments; two-tailed Student’s t-test, **P < 0.01 compared with the indicated control. g Quantitative real-time PCR analysis of mRNA levels of CK2α and Slug normalized to GAPDH in Scr and NatD-KD H1299 cells in the absence or presence of siRNA to CK2α. NC, siRNA mimics negative control. […]
For immunofluorescence assays, cells were fixed with 4% formaldehyde for 5 min at room temperature. […] Sub-cellular distribution of CK2α was analyzed by confocal scanning microscopy (Olympus FV10i). The relative intracellular distribution of CK2α in each experimental sample was calculated as the nuclear to total (cytoplasmic + nuclear) ratio by measuring the intensity of the signals in each cellular compartment with the aid of ImageJ software (NIH). […]

With “NatD-KD2: Human NatD shRNA KD2: 5′-GGTTGAATGTCTCCATTGA-3′, lentiviral (shRNA lentiviral)” the “migration and invasion, orthotopic model” value [1] was “significantly reduced”, the “CK2α in the cytoplasm (western blot)” value [2] was “no detectable levels” and the “CK2α localized in the nucleus” value ([2]; more than 30 cells (Scr: about 70%)) was about 100%.

From PMC5640650, “NatD promotes lung cancer progression by preventing histone H4 serine phosphorylation to activate Slug expression” (Nature Communications, 2017)
